target: human adenosine A2b receptor (Homo sapiens (Human), UniProt P29275); assay: Cellular in vitro reporter gene test for A2b receptor activity (CHO-K1, CRE-luciferase, NECA stimulation); type: cell-based; settings: recombinant CHO-K1 cell line, CRE-luciferase reporter, antagonism of EC50 concentration of NECA; in some cases means of several determinations, rounded to two significant figures; read-out: A2b receptor IC50
Procedure, shortened: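 CHO-K1 cells with CRE-driven luciferase; antagonists co-incubated with NECA at its EC50, determined in a pre-experiment on each test day. Luciferase read by luminescence 3 h after NECA addition.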

Chain of human adenosine A2b receptor (P29275 whole entry): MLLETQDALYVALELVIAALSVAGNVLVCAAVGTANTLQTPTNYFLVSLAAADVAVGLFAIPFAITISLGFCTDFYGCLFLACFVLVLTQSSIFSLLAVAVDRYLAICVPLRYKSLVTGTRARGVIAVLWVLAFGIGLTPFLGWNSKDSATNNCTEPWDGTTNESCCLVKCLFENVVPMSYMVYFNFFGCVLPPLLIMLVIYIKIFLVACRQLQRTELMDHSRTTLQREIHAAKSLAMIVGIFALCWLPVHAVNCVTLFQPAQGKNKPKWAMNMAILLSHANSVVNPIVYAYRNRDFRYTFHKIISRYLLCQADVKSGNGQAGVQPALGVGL

| Compound | IC50 [nM] |
| --- | --- |
| Cc1c(CN2CCN(C)C2=S)sc2c1c(=O)n(CC(F)(F)F)c(=O)n2CCCF [Example 173, 1-(3-Fluoropropyl)-5-methyl-6-[(3-methyl-2-thioxoimidazolidin-1-yl)methyl]-3-(2,2,2-trifluoroethyl)thieno[2,3-d]pyrimidine-2,4(1H,3H)-dione] | 73 |
| CCn1c(=O)c2c(C)c(CN3CCN(C(C)C)C3=S)sc2n(CCOC)c1=O [Example 174, 3-Ethyl-6-[(3-isopropyl-2-thioxoimidazolidin-1-yl)methyl]-1-(2-methoxyethyl)-5-methylthieno[2,3-d]pyrimidine-2,4(1H,3H)-dione] | 49 |
| COCCn1c(=O)n(CCc2ccccc2)c(=O)c2c(C)c(CN3CCNC3=O)sc21 [Example 176, 1-(2-Methoxyethyl)-5-methyl-6-[(2-oxoimidazolidin-1-yl)methyl]-3-(2-phenylethyl)thieno[2,3-d]pyrimidine-2,4(1H,3H)-dione] | 1.5 |
| CCn1c(=O)c2c(C)c(CN3CCNC3=O)sc2n(CC(F)F)c1=O [Example 177, 1-(2,2-Difluoroethyl)-3-ethyl-5-methyl-6-[(2-oxoimidazolidin-1-yl)methyl]thieno[2,3-d]pyrimidine-2,4(1H,3H)-dione] | 15 |
| CCn1c(=O)c2c(C)c(CN3CCNC3=O)sc2n(CCOC2CC2)c1=O [Example 178, 1-[2-(Cyclopropyloxy)ethyl]-3-ethyl-5-methyl-6-[(2-oxoimidazolidin-1-yl)methyl]thieno[2,3-d]pyrimidine-2,4(1H,3H)-dione] | 21 |
| Cc1c(CN2CCNC2=O)sc2c1c(=O)n(C(C)C)c(=O)n2CCF [Example 182, 1-(2-Fluoroethyl)-3-isopropyl-5-methyl-6-[(2-oxoimidazolidin-1-yl)methyl]thieno[2,3-d]pyrimidine-2,4(1H,3H)-dione] | 9 |
| Cc1c(CN2CCNC2=O)sc2c1c(=O)n(C(C)C)c(=O)n2CC1COC1 [Example 189, 3-Isopropyl-5-methyl-1-(oxetan-3-ylmethyl)-6-[(2-oxoimidazolidin-1-yl)methyl]thieno[2,3-d]pyrimidine-2,4(1H,3H)-dione] | 17 |
| Cc1c(CN2CCNC2=O)sc2c1c(=O)n(CC(C)C)c(=O)n2CC(F)F [Example 191, 1-(2,2-Difluoroethyl)-3-isobutyl-5-methyl-6-[(2-oxoimidazolidin-1-yl)methyl]thieno[2,3-d]pyrimidine-2,4(1H,3H)-dione] | 3.3 |
| Cc1c(CN2CCNC2=O)sc2c1c(=O)n(CC(C)C)c(=O)n2CCCF [Example 192, 1-(3-Fluoropropyl)-3-isobutyl-5-methyl-6-[(2-oxoimidazolidin-1-yl)methyl]thieno[2,3-d]pyrimidine-2,4(1H,3H)-dione] | 3.2 |
| CCOCCn1c(=O)n(CC(C)C)c(=O)c2c(C)c(CN3CCNC3=O)sc21 [Example 193, 1-(2-Ethoxyethyl)-3-isobutyl-5-methyl-6-[(2-oxoimidazolidin-1-yl)methyl]thieno[2,3-d]pyrimidine-2,4(1H,3H)-dione] | 25 |
| Cc1c(CN2CCNC2=O)sc2c1c(=O)n(CC(C)C)c(=O)n2CC1COC1 [Example 199, 3-Isobutyl-5-methyl-1-(oxetan-3-ylmethyl)-6-[(2-oxoimidazolidin-1-yl)methyl]thieno[2,3-d]pyrimidine-2,4(1H,3H)-dione] | 8.1 |
| COCCn1c(=O)n(CC=C(C)C)c(=O)c2c(C)c(CN3CCNC3=O)sc21 [Example 203, 1-(2-Methoxyethyl)-5-methyl-3-(3-methylbut-2-en-1-yl)-6-[(2-oxoimidazolidin-1-yl)methyl]thieno[2,3-d]pyrimidine-2,4(1H,3H)-dione] | 57 |
| Cc1c(CN2CCNC2=O)sc2c1c(=O)n(CC(F)(F)F)c(=O)n2CC1COC1 [Example 212, 5-Methyl-1-(oxetan-3-ylmethyl)-6-[(2-oxoimidazolidin-1-yl)methyl]-3-(2,2,2-trifluoroethyl)thieno[2,3-d]pyrimidine-2,4(1H,3H)-dione] | 17 |
| Cc1c(CN2CCNC2=O)sc2c1c(=O)n(CC(F)(F)F)c(=O)n2C [Example 213, 1,5-Dimethyl-6-[(2-oxoimidazolidin-1-yl)methyl]-3-(2,2,2-trifluoroethyl)thieno[2,3-d]pyrimidine-2,4(1H,3H)-dione] | 7.6 |
| CCOCCn1c(=O)n(CC(F)F)c(=O)c2c(C)c(CN3CCNC3=O)sc21 [Example 215, 3-(2,2-Difluoroethyl)-1-(2-ethoxyethyl)-5-methyl-6-[(2-oxoimidazolidin-1-yl)methyl]thieno[2,3-d]pyrimidine-2,4(1H,3H)-dione] | 45 |
| Cc1c(CN2CCNC2=O)sc2c1c(=O)n(CC(F)F)c(=O)n2CC1COC1 [Example 222, 3-(2,2-Difluoroethyl)-5-methyl-1-(oxetan-3-ylmethyl)-6-[(2-oxoimidazolidin-1-yl)methyl]thieno[2,3-d]pyrimidine-2,4(1H,3H)-dione] | 13 |
| Cc1c(CN2CCNC2=O)sc2c1c(=O)n(CC(F)F)c(=O)n2C [Example 223, 3-(2,2-Difluoroethyl)-1,5-dimethyl-6-[(2-oxoimidazolidin-1-yl)methyl]thieno[2,3-d]pyrimidine-2,4(1H,3H)-dione] | 14 |
| COCCn1c(=O)n(CCCF)c(=O)c2c(C)c(CN3CCNC3=O)sc21 [Example 224, 3-(3-Fluoropropyl)-1-(2-methoxyethyl)-5-methyl-6-[(2-oxoimidazolidin-1-yl)methyl]thieno[2,3-d]pyrimidine-2,4(1H,3H)-dione] | 31 |

The remaining lines, values ahead:

| IC50 [nM] | Compound |
| --- | --- |
| 36 | CCOCCn1c(=O)n(CCOC)c(=O)c2c(C)c(CN3CCNC3=S)sc21 [Example 169, 1-(2-Ethoxyethyl)-3-(2-methoxyethyl)-5-methyl-6-[(2-thioxoimidazolidin-1-yl)methyl]thieno[2,3-d]pyrimidine-2,4(1H,3H)-dione] |
| 4.4 | COC(C)(C)Cn1c(=O)c2c(C)c(CN3CCNC3=S)sc2n(CCC(F)(F)F)c1=O [Example 170, 3-(2-Methoxy-2-methylpropyl)-5-methyl-6-[(2-thioxoimidazolidin-1-yl)methyl]-1-(3,3,3-trifluoropropyl)thieno[2,3-d]pyrimidine-2,4(1H,3H)-dione] |
| 13 | COC(C)(C)Cn1c(=O)c2c(C)c(CN3CCNC3=S)sc2n(CCCF)c1=O [Example 171, 1-(3-Fluoropropyl)-3-(2-methoxy-2-methylpropyl)-5-methyl-6-[(2-thioxoimidazolidin-1-yl)methyl]thieno[2,3-d]pyrimidine-2,4(1H,3H)-dione] |
| 7.3 | COCCn1c(=O)n(CC(C)(C)OC)c(=O)c2c(C)c(CN3CCNC3=S)sc21 [Example 172, 1-(2-Methoxyethyl)-3-(2-methoxy-2-methylpropyl)-5-methyl-6-[(2-thioxoimidazolidin-1-yl)methyl]thieno[2,3-d]pyrimidine-2,4(1H,3H)-dione] |
| 1.5 | Cc1c(CN2CCNC2=O)sc2c1c(=O)n(C(C)C)c(=O)n2CCC(F)(F)F [Example 181, 3-Isopropyl-5-methyl-6-[(2-oxoimidazolidin-1-yl)methyl]-1-(3,3,3-trifluoropropyl)thieno[2,3-d]pyrimidine-2,4(1H,3H)-dione] |
| 2.9 | Cc1c(CN2CCNC2=O)sc2c1c(=O)n(CC(C)(C)C)c(=O)n2CCC(F)(F)F [Example 200, 3-(2,2-Dimethylpropyl)-5-methyl-6-[(2-oxoimidazolidin-1-yl)methyl]-1-(3,3,3-trifluoropropyl)thieno[2,3-d]pyrimidine-2,4(1H,3H)-dione] |
| 4.4 | Cc1c(CN2CCNC2=O)sc2c1c(=O)n(CC(C)(C)C)c(=O)n2CCCF [Example 201, 3-(2,2-Dimethylpropyl)-1-(3-fluoropropyl)-5-methyl-6-[(2-oxoimidazolidin-1-yl)methyl]thieno[2,3-d]pyrimidine-2,4(1H,3H)-dione] |
| 7.8 | COCCn1c(=O)n(CC(C)(C)C)c(=O)c2c(C)c(CN3CCNC3=O)sc21 [Example 202, 3-(2,2-Dimethylpropyl)-1-(2-methoxyethyl)-5-methyl-6-[(2-oxoimidazolidin-1-yl)methyl]thieno[2,3-d]pyrimidine-2,4(1H,3H)-dione] |
| 1.1 | Cc1c(CN2CCNC2=O)sc2c1c(=O)n(CC(F)(F)F)c(=O)n2CCC(F)(F)F [Example 204, 5-Methyl-6-[(2-oxoimidazolidin-1-yl)methyl]-3-(2,2,2-trifluoroethyl)-1-(3,3,3-trifluoropropyl)thieno[2,3-d]pyrimidine-2,4(1H,3H)-dione] |
| 25 | CCOCCn1c(=O)n(CC(F)(F)F)c(=O)c2c(C)c(CN3CCNC3=O)sc21 [Example 205, 1-(2-Ethoxyethyl)-5-methyl-6-[(2-oxoimidazolidin-1-yl)methyl]-3-(2,2,2-trifluoroethyl)thieno[2,3-d]pyrimidine-2,4(1H,3H)-dione] |
| 3.1 | Cc1c(CN2CCNC2=O)sc2c1c(=O)n(CC(F)F)c(=O)n2CCC(F)(F)F [Example 214, 3-(2,2-Difluoroethyl)-5-methyl-6-[(2-oxoimidazolidin-1-yl)methyl]-1-(3,3,3-trifluoropropyl)thieno[2,3-d]pyrimidine-2,4(1H,3H)-dione] |
| 12 | Cc1c(CN2CCNC2=O)sc2c1c(=O)n(CC(C)(C)F)c(=O)n2CCC(F)(F)F [Example 225, 3-(2-Fluoro-2-methylpropyl)-5-methyl-6-[(2-oxoimidazolidin-1-yl)methyl]-1-(3,3,3-trifluoropropyl)thieno[2,3-d]pyrimidine-2,4(1H,3H)-dione] |
| 36 | COCCn1c(=O)n(CC(C)(C)F)c(=O)c2c(C)c(CN3CCNC3=O)sc21 [Example 226, 3-(2-Fluoro-2-methylpropyl)-1-(2-methoxyethyl)-5-methyl-6-[(2-oxoimidazolidin-1-yl)methyl]thieno[2,3-d]pyrimidine-2,4(1H,3H)-dione] |
| 22 | Cc1c(CN2CCNC2=O)sc2c1c(=O)n(CC(C)(C)O)c(=O)n2CCC(F)(F)F [Example 227, 3-(2-Hydroxy-2-methylpropyl)-5-methyl-6-[(2-oxoimidazolidin-1-yl)methyl]-1-(3,3,3-trifluoropropyl)thieno[2,3-d]pyrimidine-2,4(1H,3H)-dione] |
